Assays:
[1] = Compound was evaluated for inhibition of p24 production in HIV infected peripheral blood mononuclear cells; assay type: functional; conditions: Homo sapiens
[2] = Compound was evaluated for cytotoxic activity against peripheral blood mononuclear cells using microculture tetrazolium assay; assay type: functional; conditions: Homo sapiens
[3] = biological target: Human immunodeficiency virus type 1 reverse transcriptase (Human immunodeficiency virus 1, UniProt Q72547); assay: Compound was evaluated for enzymatic inhibitory activity against recombinant HIV reverse transcriptase

Row | SMILES | IC50 [1] [µM] | IC50 [2] [µM] | IC50 [3] [µM]
1 | CSCSc1nc(O)c(C)c(Cc2ccccc2)n1 | 4.5 | > 100 | 18.8
2 | CSCSc1nc(O)c(C(C)C)c(Cc2cc(C)cc(C)c2)n1 | 0.01 | > 100 | 4.8
3 | CSCSc1nc(O)c(C(C)C)c(Cc2ccccc2)n1 | < 0.001 | > 100 | 6.1
4 | CCc1c(O)nc(SCSC)nc1Cc1ccccc1 | 0.8 | > 100 | 9.7
5 | CCOCn1c(Cc2ccccc2)c(C(C)C)c(=O)[nH]c1=O [EMIVIRINE] |  | > 100 | 
6 | Cc1cn([C@H]2C[C@H](N=[N+]=[N-])[C@@H](CO)O2)c(=O)[nH]c1=O [ZIDOVUDINE] | 0.004 | 100 | > 100
